What was measured:
[1] = biological target: T1, Glycine receptor subunit alpha-1 (Homo sapiens, UniProt P23415); assay: Antagonist activity at human glycine receptor subunit alpha-1 expressed in human tsA201 cells assessed as reduction in glycine-induced response incubated for 30 mins by fluorescence-based FLIPR membrane potential blue assay; type: cell-based
T1 sequence (P23415 whole entry): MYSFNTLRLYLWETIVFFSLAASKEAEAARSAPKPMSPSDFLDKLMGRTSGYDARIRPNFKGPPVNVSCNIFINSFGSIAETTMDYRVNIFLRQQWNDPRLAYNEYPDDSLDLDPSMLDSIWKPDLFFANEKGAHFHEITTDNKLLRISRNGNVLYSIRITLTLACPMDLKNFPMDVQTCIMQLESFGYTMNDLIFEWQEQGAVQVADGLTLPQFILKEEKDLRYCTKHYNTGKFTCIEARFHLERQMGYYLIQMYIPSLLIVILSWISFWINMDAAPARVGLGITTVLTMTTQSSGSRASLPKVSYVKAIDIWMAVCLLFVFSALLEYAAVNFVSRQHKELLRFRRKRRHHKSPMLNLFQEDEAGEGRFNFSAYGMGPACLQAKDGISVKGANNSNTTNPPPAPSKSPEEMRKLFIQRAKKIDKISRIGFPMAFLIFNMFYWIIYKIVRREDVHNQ

[2] = biological target: Glycine receptor (alpha-1/beta) (Homo sapiens, UniProt P23415+P48167); assay: Antagonist activity at human glycine receptor subunit alpha-1beta expressed in human tsA201 cells assessed as reduction in glycine-induced response incubated for 30 mins by fluorescence-based FLIPR membrane potential blue assay; type: cell-based; conditions: for pIC50: tsa201
Sequence of Glycine receptor (alpha-1/beta) (P48167 whole entry, one chain of several): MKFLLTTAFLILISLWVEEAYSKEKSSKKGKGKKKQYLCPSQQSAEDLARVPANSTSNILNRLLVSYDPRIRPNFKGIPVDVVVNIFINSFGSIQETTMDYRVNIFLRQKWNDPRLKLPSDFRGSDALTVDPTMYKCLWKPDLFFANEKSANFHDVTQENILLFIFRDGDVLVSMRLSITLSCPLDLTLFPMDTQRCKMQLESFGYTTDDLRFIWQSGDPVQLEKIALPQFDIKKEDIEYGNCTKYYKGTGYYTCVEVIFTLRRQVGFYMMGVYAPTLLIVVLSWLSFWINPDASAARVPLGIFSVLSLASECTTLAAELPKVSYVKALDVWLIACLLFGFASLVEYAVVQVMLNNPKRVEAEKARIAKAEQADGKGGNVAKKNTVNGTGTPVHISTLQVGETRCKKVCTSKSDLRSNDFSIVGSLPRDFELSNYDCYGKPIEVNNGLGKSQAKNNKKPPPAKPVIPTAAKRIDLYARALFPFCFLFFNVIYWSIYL

[3] = biological target: T1, Glycine receptor subunit alpha-1; assay: Antagonist activity at human glycine receptor subunit alpha-1 expressed in HEK293 cells assessed as reduction in glycine-induced currents by whole-cell patch-clamp assay; type: cell-based
[4] = biological target: T1, Glycine receptor subunit alpha-1; assay: Displacement of [3H]strychnine from human glycine receptor subunit alpha-1 expressed in HEK293 cell membranes preincubated for 30 mins followed by [3H]strychnine addition and measured after 30 mins by liquid scintillation counting method; design: species or system Membrane
[5] = biological target: T1, Glycine receptor subunit alpha-1; assay: Antagonist activity at human glycine receptor subunit alpha-1 assessed as inhibition of glycine-induced current measured at the onset of compound application by patch-clamp assay
[6] = biological target: T1, Glycine receptor subunit alpha-1; assay: Antagonist activity at human glycine receptor subunit alpha-1 assessed as inhibition of glycine-induced current measured at the later state of compound application by patch-clamp assay

SMILES | IC50 ([1]; read-out: IC50) | IC50 ([2]; read-out: IC50) | IC50 [3] | further results
O=C(CCCCCCCC(=O)NCC(=O)Nc1ccc2c(c1)[C@@]13CCN4CC5=CCO[C@H]6CC(=O)N2[C@H]1[C@H]6[C@H]5C[C@H]43)NCC(=O)Nc1ccc2c(c1)[C@@]13CCN4CC5=CCO[C@H]6CC(=O)N2[C@H]1[C@H]6[C@H]5C[C@H]43 | 2100 nM | 1700 nM | 400 nM | 
CCCCCCCC(=O)NCC(=O)Nc1ccc2c(c1)[C@@]13CCN4CC5=CCO[C@H]6CC(=O)N2[C@H]1[C@H]6[C@H]5C[C@H]43 | 780 nM | 510 nM | 90 nM | 
CCCCCCCC(=O)NCCCCCCCCCCC(=O)Nc1ccc2c(c1)[C@@]13CCN4CC5=CCO[C@H]6CC(=O)N2[C@H]1[C@H]6[C@H]5C[C@H]43 | 10000 nM | 5800 nM | 1700 nM | 
O=C(CCCCCCC(=O)NCC(=O)Nc1ccc2c(c1)[C@@]13CCN4CC5=CCO[C@H]6CC(=O)N2[C@H]1[C@H]6[C@H]5C[C@H]43)NCC(=O)Nc1ccc2c(c1)[C@@]13CCN4CC5=CCO[C@H]6CC(=O)N2[C@H]1[C@H]6[C@H]5C[C@H]43 | 2800 nM | 2400 nM | 170 nM | 
O=C(CCCCCCCCCCCCCCC(=O)NCCCCC(=O)Nc1ccc2c(c1)[C@@]13CCN4CC5=CCO[C@H]6CC(=O)N2[C@H]1[C@H]6[C@H]5C[C@H]43)NCCCCC(=O)Nc1ccc2c(c1)[C@@]13CCN4CC5=CCO[C@H]6CC(=O)N2[C@H]1[C@H]6[C@H]5C[C@H]43 | 7900 nM | 4100 nM |  | 
O=C(CCCCCC(=O)NCC(=O)Nc1ccc2c(c1)[C@@]13CCN4CC5=CCO[C@H]6CC(=O)N2[C@H]1[C@H]6[C@H]5C[C@H]43)NCC(=O)Nc1ccc2c(c1)[C@@]13CCN4CC5=CCO[C@H]6CC(=O)N2[C@H]1[C@H]6[C@H]5C[C@H]43 | 2800 nM | 2200 nM | 130 nM | IC50 ([1]; read-out: pIC50 (converted)): 2690 nM
O=C(CCCCCCCCCCCCCCCCCCCCC(=O)NCCCCCCCCCCC(=O)Nc1ccc2c(c1)[C@@]13CCN4CC5=CCO[C@H]6CC(=O)N2[C@H]1[C@H]6[C@H]5C[C@H]43)NCCCCCCCCCCC(=O)Nc1ccc2c(c1)[C@@]13CCN4CC5=CCO[C@H]6CC(=O)N2[C@H]1[C@H]6[C@H]5C[C@H]43 | > 10000 nM | > 10000 nM | 2900 nM | pIC50 ([1]; tsa201): < 5; pIC50 [2]: < 5
O=C(CCCCCCCCCCCCCCC(=O)NCCCCCCCCCCC(=O)Nc1ccc2c(c1)[C@@]13CCN4CC5=CCO[C@H]6CC(=O)N2[C@H]1[C@H]6[C@H]5C[C@H]43)NCCCCCCCCCCC(=O)Nc1ccc2c(c1)[C@@]13CCN4CC5=CCO[C@H]6CC(=O)N2[C@H]1[C@H]6[C@H]5C[C@H]43 | 10000 nM | > 10000 nM |  | pIC50 [2]: < 5
COCCOCCOCCOCCOCCOCCOCCOCCOCCOCCOCCOCCC(=O)NCCCCCCCCCCC(=O)Nc1ccc2c(c1)[C@@]13CCN4CC5=CCO[C@H]6CC(=O)N2[C@H]1[C@H]6[C@H]5C[C@H]43 | 20000 nM | 10000 nM |  | Ki [4]: 977 nM; IC50 [5]: 5720 nM; IC50 [6]: 158 nM
O=C(CCCCCCCCCCCCC(=O)NCC(=O)Nc1ccc2c(c1)[C@@]13CCN4CC5=CCO[C@H]6CC(=O)N2[C@H]1[C@H]6[C@H]5C[C@H]43)NCC(=O)Nc1ccc2c(c1)[C@@]13CCN4CC5=CCO[C@H]6CC(=O)N2[C@H]1[C@H]6[C@H]5C[C@H]43 | 1700 nM | 2000 nM |  | 
O=C(CCC(=O)Nc1ccc2c(c1)[C@@]13CCN4CC5=CCO[C@H]6CC(=O)N2[C@H]1[C@H]6[C@H]5C[C@H]43)Nc1ccc2c(c1)[C@@]13CCN4CC5=CCO[C@H]6CC(=O)N2[C@H]1[C@H]6[C@H]5C[C@H]43 | 10000 nM | 10000 nM |  | 
O=C(CCCCCCCCCCCCC(=O)Nc1ccc2c(c1)[C@@]13CCN4CC5=CCO[C@H]6CC(=O)N2[C@H]1[C@H]6[C@H]5C[C@H]43)Nc1ccc2c(c1)[C@@]13CCN4CC5=CCO[C@H]6CC(=O)N2[C@H]1[C@H]6[C@H]5C[C@H]43 | 430 nM | 210 nM |  | 
O=C(CCCCCCCCCCCCCCC(=O)NCC(=O)Nc1ccc2c(c1)[C@@]13CCN4CC5=CCO[C@H]6CC(=O)N2[C@H]1[C@H]6[C@H]5C[C@H]43)NCC(=O)Nc1ccc2c(c1)[C@@]13CCN4CC5=CCO[C@H]6CC(=O)N2[C@H]1[C@H]6[C@H]5C[C@H]43 | 3200 nM | 2200 nM |  | 
O=C(CCCCCCCCCCC(=O)NCC(=O)Nc1ccc2c(c1)[C@@]13CCN4CC5=CCO[C@H]6CC(=O)N2[C@H]1[C@H]6[C@H]5C[C@H]43)NCC(=O)Nc1ccc2c(c1)[C@@]13CCN4CC5=CCO[C@H]6CC(=O)N2[C@H]1[C@H]6[C@H]5C[C@H]43 | 2700 nM | 1900 nM | 100 nM | 
CCCCCCCC(=O)Nc1ccc2c(c1)[C@@]13CCN4CC5=CCO[C@H]6CC(=O)N2[C@H]1[C@H]6[C@H]5C[C@H]43 | 1200 nM | 680 nM |  | 
O=C(CCCCCCCCC(=O)NCC(=O)Nc1ccc2c(c1)[C@@]13CCN4CC5=CCO[C@H]6CC(=O)N2[C@H]1[C@H]6[C@H]5C[C@H]43)NCC(=O)Nc1ccc2c(c1)[C@@]13CCN4CC5=CCO[C@H]6CC(=O)N2[C@H]1[C@H]6[C@H]5C[C@H]43 | 730 nM | 880 nM |  | 
O=C(CCCCC(=O)Nc1ccc2c(c1)[C@@]13CCN4CC5=CCO[C@H]6CC(=O)N2[C@H]1[C@H]6[C@H]5C[C@H]43)Nc1ccc2c(c1)[C@@]13CCN4CC5=CCO[C@H]6CC(=O)N2[C@H]1[C@H]6[C@H]5C[C@H]43 | 6100 nM | 10000 nM |  | 
O=C(CCCC(=O)Nc1ccc2c(c1)[C@@]13CCN4CC5=CCO[C@H]6CC(=O)N2[C@H]1[C@H]6[C@H]5C[C@H]43)Nc1ccc2c(c1)[C@@]13CCN4CC5=CCO[C@H]6CC(=O)N2[C@H]1[C@H]6[C@H]5C[C@H]43 | 10000 nM | 30000 nM |  | 
O=C(CCCCCCC(=O)NCCCCCCCCCCC(=O)Nc1ccc2c(c1)[C@@]13CCN4CC5=CCO[C@H]6CC(=O)N2[C@H]1[C@H]6[C@H]5C[C@H]43)NCCCCCCCCCCC(=O)Nc1ccc2c(c1)[C@@]13CCN4CC5=CCO[C@H]6CC(=O)N2[C@H]1[C@H]6[C@H]5C[C@H]43 | 30000 nM | 20000 nM | 1400 nM | IC50 ([2]; read-out: pIC50 (converted)): 50100 nM
COCCOCCOCCOCCOCCOCCOCCOCCOCCOCCOCCOCCC(=O)NCCCCC(=O)Nc1ccc2c(c1)[C@@]13CCN4CC5=CCO[C@H]6CC(=O)N2[C@H]1[C@H]6[C@H]5C[C@H]43 | 15000 nM | 10000 nM |  | Ki [4]: 436 nM; IC50 [5]: 852 nM; IC50 [6]: 137 nM
O=C(CCCCCCCCCCC(=O)NCCCCCCCCCCC(=O)Nc1ccc2c(c1)[C@@]13CCN4CC5=CCO[C@H]6CC(=O)N2[C@H]1[C@H]6[C@H]5C[C@H]43)NCCCCCCCCCCC(=O)Nc1ccc2c(c1)[C@@]13CCN4CC5=CCO[C@H]6CC(=O)N2[C@H]1[C@H]6[C@H]5C[C@H]43 | 30000 nM | 50000 nM | 3100 nM | IC50 ([2]; read-out: pIC50 (converted)): 31600 nM
